How the values were obtained:
αVβ3 integrin = target: T1, αVβ3 integrin (Homo sapiens, UniProt P05106+P06756); assay: ELISA-integrin; type: binding; details: 0.5-10 μg/ml
T1 construct: purchased Chemicon
Protocol: Plates coated with C16 or fibronectin were blocked with 10% BSA for 1 hour and washed with PBS. 20 ng/well of integrin with or without AS101/SAS was applied on fibronectin or 2 ng C16 coated well and incubated for 1.5 hours at 37° C. The wells were thereafter washed with PBS-T and mouse anti-integrin was added thereto for 1 hour at 37° C. Cells were then washed again and anti-mouse-horseradish peroxidase was added for another 1 hour at 37° C. Finally, cells were washed, TBM-substrate was added for color development, and absorption was read at 595 nm. Data presented as ±SE, bar *=p<0.005, evaluated by T-test.

aortic arches = assay: Chick aortic arch assay; type: cell-based; details: for vessel length and number, sprouting induced by ECGS / length of tubes exiting from arches / number of tubes exiting from arches: 0.5-5 μg/ml; for vessel length and number, sprouting induced by ECGS: 100 μg/ml ECGS; for length of tubes exiting from arches / number of tubes exiting from arches: without ECGS; for toxicity in aortic arch assay (re-sprouting after washing): data not shown
Protocol: Aortic arches were removed from fertilized chicken eggs at day 13 of embryonic development. The eggs were cracked into a sterile 100 mm culture dish. The embryo was removed from its surroundings by cutting away the associated membranes and yolk sac. The chicken embryo was placed ventral side up to surgically expose the heart and aortic arches. The heart and aortic arch were removed and placed into a sterile culture dish containing PBS to which 1% penicillin-streptomycin was added. Arches, from which the surrounding adventitia had been removed, were cut into 0.8 mm sections. Each arch was placed onto drop of Matrigel that was deposited on the bottom of a 48-well culture plate just prior to adding the ring. An additional drop of ice-cold Matrigel was spread on each aortic arch. Matrigel was allowed to solidify before adding 500 μl of human endothelial-SFM basal growth medium. […] Quantitative evaluation of tubule formation was performed by a blinded observer on a scale of 1-3 (least to maximum sprouting).

C57B1/6N female mice = assay: Mouse plug in vivo migration and angiogenesis assay; details: 20 μg/mouse s.c. daily, 10 days, ECGS 500 μg/ml in Matrigel
Protocol: Matrigel was mixed with ECGS (500 μg/ml) and injected subcutaneously into C57B1/6N female mice on the ventral surface of the animal. During 10 days, every day, AS101 or SAS (20 μg/mouse in Matrigel) were injected subcutaneously. After 10 days, the plugs were removed with some surrounding tissue, fixed in 10% formalin, and paraffin-embedded. Sections were deparaffinized, and stained with hematoxylin and eosin dyes. In the most positive regions, stained cells were counted by a blinded observer. In each treatment group there were 5-6 mice, and the experiment was performed twice. Images from the sections were captured using a 10× objective of an Olympus microscope.

LAN-1 cells = assay: Cell attachment assay, LAN-1; type: cell-based, human; details: for cell attachment to fibronectin: LAN-1; for cell attachment to C16 and AG73 peptides: LAN-1, data not shown, compared with SVEC4-10
Protocol: (§1) The cell attachment assays were performed in sextuplicate in 96-well plates. The 1 μg of C16 or AG73 peptide in 60 μl double-distilled water was added to each well, and this volume was allowed to air dry overnight in a biosafety hood at room temperature (or fibronectin 20 ng/80 μl for 1 hour at 37° C.). Thereafter, nonspecific binding sites of the tissue culture plastic were blocked by adding 200 μl of 1% bovine serum albumin (BSA) in PBS for 1 hour at 37° C. LAN-1, B16F10 and SVEC4-10 cells were harvested by agitation, washed three times in serum-free DMEM and resuspended in 1% BSA-DMEM. After 20 minutes incubation in 1% BSA in a tube, cells were washed and resuspended in 0.1% BSA. The cells were counted using a hemocytometer and brought to a final cell count of 1×10^6/ml in the 0.1% BSA medium. Cells were divided into tubes and each tube was treated with one of the following in DMEM: ECGS (endothelial cell growth supplement) (50 μg/ml), AS101 (1-5 μg/ml), SAS (1-5 μg/ml), ECGS (50 μg/ml)+SAS (1-5 μg/ml), ECGS (50 μg/ml)+AS101 (1-5 μg/ml), 10% serum, 10% serum+AS101 (1-5 μg/ml) or 10% serum+SAS (1-5 μg/ml).
(§2) Next, 150 μl of the treated cell suspension was added to each well (20,000 cells/well), which had been coated with peptides, and incubated for 50 minutes at 37° C. After 50 minutes, the unattached cells were removed by aspiration and the remaining attached cells were fixed and stained by crystal violet. 100 μl aliquot of 10% SDS was thereafter added to each well for cell lysis and dye release and absorption was read with a TECAN spectrophotometer at 570 nm.
(§3) Attached cells were washed with PBS without Ca^+2/Mg^+2. 100 μl of 0.2% crystal violet in 20% methanol was thereafter added and the cells were incubated for 10 minutes at room temperature. At the end of incubation time, cells were washed twice with double-distilled water and 100 μl of 10% SDS was added. Dye bound to the cell is released by SDS and the absorption by the dye is measured by colorimetry at 570 nm. The amount of stained cells is then considered to be proportional to the measured absorption by the dye

RAW cells = assay: Cell attachment assay, RAW; type: cell-based
B16F10 cells = assay: Cell attachment assay, B16F10; type: cell-based, murine; details: B16F10, data not shown, compared with SVEC4-10
Protocol: as §1, with “Cells were divided into tubes and each tube was treated with one of the following in DMEM: ECGS (endothelial cell growth supplement) (50 μg/ml), AS101 (1-5 μg/ml), SAS (1-5 μg/ml), ECGS (50 μg/ml)+SAS (1-5 μg/ml), ECGS (50 μg/ml)+AS101 (1-5 μg/ml), 10% serum, 10% serum+AS101 (1-5 μg/ml) or 10% serum+SAS (1-5 μg/ml).” left out
as §2, with “After 50 minutes, the unattached cells were removed by aspiration and the remaining attached cells were fixed and stained by crystal violet.” left out
Attached cells were washed with PBS without Ca^+2/Mg^+2. […] Dye bound to the cell is released by SDS and the absorption by the dye is measured by colorimetry at 570 nm. The amount of stained cells is then considered to be proportional to the measured absorption by the dye

integrin β subunits = assay: Multiple anti-integrin antibody binding assay, β subunits; type: cell-based; details: SVEC cells
Protocol: The specificity of tellurium-containing compounds to integrins was tested by examining the effect of AS101 and SAS on the attachment of SVEC cells to specific anti-integrin antibodies. Commercially available kits (R&D Biosystems) with anti-integrin coated wells were used, and attachment was determined according to the manufacturer's instructions.

SVEC4-10 cells = assay: Cell attachment assay, SVEC4-10; type: cell-based, murine
Protocol: as §1, §2, §3

HUVEC endothelial cells = assay: Tube formation assay, HUVEC; type: cell-based; details: HUVEC on Matrigel, 3 hours
Protocol: Plates (48 wells) were coated with 150 μl of Matrigel and incubated at 37° C. for 1 hour to promote gelling. Svec4-10 or HUVEC cells (40,000 cells) in 0.5 ml of serum-free DMEM with varying concentration of AS101 or SAS were added to each well. For positive control, ECGS was added at a concentration of 50 μg/ml. All samples were performed in sextuplicate. After 3 hours incubation, the plates were fixed with methanol and stained with crystal violet. Randomly chosen fields were photographed and density of tube formation was analyzed by imageJ.

BV-2 cells = assay: Cell attachment assay, BV-2; type: cell-based, murine

T1 sequence (P06756 31-889 limits assumed): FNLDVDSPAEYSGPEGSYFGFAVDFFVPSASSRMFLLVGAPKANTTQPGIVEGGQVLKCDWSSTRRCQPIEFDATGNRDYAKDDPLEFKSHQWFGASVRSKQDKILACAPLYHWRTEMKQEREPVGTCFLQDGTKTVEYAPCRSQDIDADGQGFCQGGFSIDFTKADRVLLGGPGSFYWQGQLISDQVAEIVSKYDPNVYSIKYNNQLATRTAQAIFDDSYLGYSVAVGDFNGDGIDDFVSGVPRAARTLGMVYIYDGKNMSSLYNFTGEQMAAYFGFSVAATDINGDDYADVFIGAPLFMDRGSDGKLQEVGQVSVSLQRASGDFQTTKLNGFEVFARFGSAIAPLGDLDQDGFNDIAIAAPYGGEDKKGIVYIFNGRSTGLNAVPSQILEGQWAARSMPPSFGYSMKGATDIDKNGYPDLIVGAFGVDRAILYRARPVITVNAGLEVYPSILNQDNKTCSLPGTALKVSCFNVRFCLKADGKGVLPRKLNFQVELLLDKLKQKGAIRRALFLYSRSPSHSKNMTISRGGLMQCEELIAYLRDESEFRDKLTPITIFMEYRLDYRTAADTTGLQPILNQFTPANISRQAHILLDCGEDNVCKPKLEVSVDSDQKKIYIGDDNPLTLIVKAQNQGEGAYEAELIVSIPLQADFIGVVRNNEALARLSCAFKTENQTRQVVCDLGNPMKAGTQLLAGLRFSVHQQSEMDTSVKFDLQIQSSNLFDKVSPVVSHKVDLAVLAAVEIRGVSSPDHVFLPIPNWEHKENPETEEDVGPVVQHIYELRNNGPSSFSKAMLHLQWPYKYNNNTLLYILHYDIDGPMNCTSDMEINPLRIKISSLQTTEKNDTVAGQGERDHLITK
T1 sequence (P06756 891-1048 limits assumed): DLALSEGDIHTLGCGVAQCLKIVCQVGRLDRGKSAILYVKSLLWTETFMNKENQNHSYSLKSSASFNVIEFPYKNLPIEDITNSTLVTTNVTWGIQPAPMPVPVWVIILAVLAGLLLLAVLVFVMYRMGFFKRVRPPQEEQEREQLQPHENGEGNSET
T1 sequence (P05106 27-788): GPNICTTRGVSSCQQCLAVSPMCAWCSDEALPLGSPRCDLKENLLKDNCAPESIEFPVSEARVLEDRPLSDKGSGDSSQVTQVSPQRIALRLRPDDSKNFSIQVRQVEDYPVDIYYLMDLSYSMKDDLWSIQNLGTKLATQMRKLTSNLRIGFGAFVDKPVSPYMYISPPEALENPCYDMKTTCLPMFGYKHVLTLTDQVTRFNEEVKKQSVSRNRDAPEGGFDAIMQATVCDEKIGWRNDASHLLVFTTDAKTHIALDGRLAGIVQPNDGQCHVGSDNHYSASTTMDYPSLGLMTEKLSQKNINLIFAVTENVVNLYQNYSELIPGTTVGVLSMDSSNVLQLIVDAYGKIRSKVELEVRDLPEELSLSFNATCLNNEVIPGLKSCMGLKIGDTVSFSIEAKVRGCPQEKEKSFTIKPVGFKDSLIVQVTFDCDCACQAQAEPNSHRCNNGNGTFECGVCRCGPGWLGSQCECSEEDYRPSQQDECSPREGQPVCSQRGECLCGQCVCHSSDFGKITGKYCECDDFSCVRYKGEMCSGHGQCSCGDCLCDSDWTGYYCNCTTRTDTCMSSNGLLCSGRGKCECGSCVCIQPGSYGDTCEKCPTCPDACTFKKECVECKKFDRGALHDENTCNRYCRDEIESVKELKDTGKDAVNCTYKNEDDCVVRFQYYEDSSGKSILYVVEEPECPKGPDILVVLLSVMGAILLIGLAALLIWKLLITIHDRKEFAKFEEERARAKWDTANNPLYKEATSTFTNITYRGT

Structure (SMILES)	C16 peptide binding to αVβ3 integrin (αVβ3 integrin)	fibronectin binding to αVβ3 integrin (αVβ3 integrin)	vessel length and number, sprouting induced by ECGS (aortic arches)	length of tubes exiting from arches (aortic arches)	number of tubes exiting from arches (aortic arches)	toxicity in aortic arch assay (re-sprouting after washing) (aortic arches)	endothelial cell invasion and migration into Matrigel plug (angiogenesis) (C57B1/6N female mice)	cell attachment to fibronectin (LAN-1 cells)	cell attachment to C16 and AG73 peptides (LAN-1 cells)	cell attachment to fibronectin (RAW cells)	cell attachment to C16 and AG73 peptides (B16F10 cells)	cell attachment to antibodies against integrin β subunits (integrin β subunits)	cell attachment to AG73 peptide (SVEC4-10 cells)	cell attachment to C16 peptide (SVEC4-10 cells)	cell attachment to fibronectin (SVEC4-10 cells)	number of tubes formed (HUVEC endothelial cells)	cell attachment to fibronectin (BV-2 cells)
Cl[TeH]1(Cl)(Cl)OCCO1 [AS101, ammonium trichloro(dioxyethylene-O,O′)tellurate]	block	block	inhibit the vessel length and number	reduced their length	did not inhibit the number of tubes exiting from arches	non-toxic	inhibit endothelial cell invasion and migration	inhibited cell attachment to fibronectin	similar	inhibited cell attachment to fibronectin	similar	considerable inhibition	slightly decrease	slightly decrease	inhibited cell attachment to fibronectin	reduced the number of tubes formed	inhibited cell attachment to fibronectin
O=C1O[Te]23OC(=O)C(O2)C2O[Te]4(OC(=O)C(O4)C1O3)OC2=O [SAS, [TeO4(COCH)2]2]	block	block	inhibit the vessel length and number	reduced their length	did not inhibit the number of tubes exiting from arches	non-toxic	inhibit endothelial cell invasion and migration	inhibited cell attachment to fibronectin	similar	inhibited cell attachment to fibronectin	similar	considerable inhibition	slightly decrease	slightly decrease	inhibited cell attachment to fibronectin	reduced the number of tubes formed	inhibited cell attachment to fibronectin

From patent US20100297256A1, “METHODS AND COMPOSITIONS FOR INHIBITING INTEGRINS USING TELLURIUM-CONTAINING COMPOUNDS” (priority 2007, published 2010)
